Measurements as given in patent publication US6875451B2, “Compositions and methods for the treatment of primary and metastatic neoplastic diseases using arsenic compounds” (PolaRx Biopharmaceuticals Inc., priority 1997, dated 2005).

How the values were obtained:
Type in all cases: cell-based
[1] = system: RPMI-8226; test: SRB growth assay, 2 days exposure, leukemia
Description: (§1) Arsenic trioxide (1 mg/ml, 10 mg/ampoule, manufactured by Taylor Pharmaceuticals, Decatur, Ill.) was tested at five concentrations each at 10-fold dilutions, i.e., 10^−5, 10^−6, 10^−7, 10^−8 and 10^−9 μg/ml.
(§2) The in vitro tests were performed by incubating the test cells in the presence of the indicated concentration of arsenic trioxide under standard culture conditions for a designated period of time, which is followed by a sulforhodamine B (SRB) protein assay to estimate cell viability or growth. The cell lines are organized into subpanels according to the origin of the cell lines, e.g., leukemia, breast cancer, etc. A description of the cell lines and method of testing is described in Monk et al. (1997, Anticancer Drug Des. 12:533-41) and Weinstein et al., (1997, Science 275:343-9), which are incorporated herein in their entirety.
(§3) The measurement of an effect is expressed in Percentage Growth (PG). The measured effect of the compound on a cell line is calculated according to one or the other of the following two expressions: If (Mean ODtest−Mean ODzero)≧0. then PG=100×(Mean ODtest−Mean ODzero)/(Mean ODctrl−Mean ODzero) If (Mean ODtest−Mean ODzero)<0. then PG=100×(Mean ODtest−Mean ODzero)/(Mean ODzero where: • Mean ODzero=the average of optical density measurements of SRB-derived color just before exposure of cells to the test compounds; • Mean ODtest=the average of optical density measurements of SRB-derived color after exposure of cells to the test compound for a designated period of time; and • Mean ODctrl=the average of optical density measurements of SRB-derived color after with no exposure of cells to the test compound for a designated period of time
(§4) The first two columns describe the subpanel (e.g., leukemia) and cell line (e.g., CCRF-CEM) involved. The next two columns list the Mean ODzero and Mean ODctrl; the next five columns list the Mean ODtest for each of five different concentrations. Each concentration is expressed as the log10 (molar or μg/ml). The next five columns list the calculated PGs for each concentration. The response parameters GI50, TGI and LC50 are interpolated values representing the concentrations at which the PG is +50, 0, and −50, respectively. Sometimes these response parameters cannot be obtained by interpolation. If, for instance, all of the PGs in a given row exceed +50, then none of the three parameters can be obtained by interpolation. In such a case, the value given for each response parameter is the highest concentration tested and is preceded by a “>” sign. This practice is extended similarly to the other possible situations where a response parameter cannot be obtained by interpolation.
(§5) In the first set, the cells from 56 different cancer cell lines were exposed to five concentrations of arsenic trioxide continuously for two days prior to performing the SRB assay. In the second set, the cells from 50 different cell lines (a subset of the first 56 cell lines, plus the renal cancer cell line 786-0) were exposed continuously for six days prior to the SRB assay.

[2] = system: MOLT-4; test: SRB growth assay, 2 days exposure, leukemia
Description: as §1, §2, §3, §4, §5

[3] = system: CCRF-CEM; test: SRB growth assay, 2 days exposure, leukemia
Description: as §1, §2, §3, §4, §5

[4] = system: SR; test: SRB growth assay, 2 days exposure, leukemia
Description: as §1, §2, §3, §4, §5

[5] = system: K-562; test: SRB growth assay, 2 days exposure, leukemia
Description: as §1, §2, §3, §4, §5

[6] = system: KM12; test: SRB growth assay, 6 days exposure, colon cancer; details: KM12, 6 days
Description: as §1, §2, §3, §4, §5

[7] = system: HT29; test: SRB growth assay, 6 days exposure, colon cancer; details: HT29, 6 days
Description: as §1, §2, §3, §4, §5

[8] = system: HCT-15; test: SRB growth assay, 6 days exposure, colon cancer; details: HCT-15, 6 days
Description: as §1, §2, §3, §4, §5

[9] = system: HCT-116; test: SRB growth assay, 6 days exposure, colon cancer; details: HCT-116, 6 days
Description: as §1, §2, §3, §4, §5

[10] = system: SW-620; test: SRB growth assay, 6 days exposure, colon cancer; details: SW-620, 6 days
Description: as §1, §2, §3, §4, §5

[11] = read-out: LC50 (the source's name)

arsenic trioxide
TGI [1]: 0.00723 ng/mL | Percent Growth ([1]; log10 conc −4.9): −21% | Percent Growth ([1]; log10 conc −5.9): 65% | Percent Growth ([1]; log10 conc −6.9): 87% | Percent Growth ([1]; log10 conc −7.9): 93% | Percent Growth ([1]; log10 conc −8.9): 96% | TGI [2]: >0.0126 ng/mL | Percent Growth ([2]; log10 conc −4.9): 4% | Percent Growth ([2]; log10 conc −5.9): 77% | Percent Growth ([2]; log10 conc −6.9): 105% | Percent Growth ([2]; log10 conc −7.9): 105% | Percent Growth ([2]; log10 conc −8.9): 109% | TGI [3]: 0.01 ng/mL | Percent Growth ([3]; log10 conc −4.9): −5% | Percent Growth ([3]; log10 conc −5.9): 47% | Percent Growth ([3]; log10 conc −6.9): 98% | Percent Growth ([3]; log10 conc −7.9): 105% | Percent Growth ([3]; log10 conc −8.9): 106% | TGI [4]: 0.00585 ng/mL | Percent Growth ([4]; log10 conc −4.9): −30% | Percent Growth ([4]; log10 conc −5.9): 60% | Percent Growth ([4]; log10 conc −6.9): 100% | Percent Growth ([4]; log10 conc −7.9): 89% | Percent Growth ([4]; log10 conc −8.9): 99% | TGI [5]: 0.011 ng/mL | Percent Growth ([5]; log10 conc −4.9): −5% | Percent Growth ([5]; log10 conc −5.9): 76% | Percent Growth ([5]; log10 conc −6.9): 100% | Percent Growth ([5]; log10 conc −7.9): 101% | Percent Growth ([5]; log10 conc −8.9): 98% | TGI [6]: >1.26E−05 | Mean Optical Densities ([6]; Log 10 Concentration −4.9): 0.017 | Percent Growth ([6]; Log 10 Concentration −4.9): 1% | Mean Optical Densities ([6]; Log 10 Concentration −5.9): 0.036 | Percent Growth ([6]; Log 10 Concentration −5.9): 4% | Mean Optical Densities ([6]; Log 10 Concentration −6.9): 0.507 | Percent Growth ([6]; Log 10 Concentration −6.9): 83% | Mean Optical Densities ([6]; Log 10 Concentration −7.9): 0.533 | Percent Growth ([6]; Log 10 Concentration −7.9): 87% | Mean Optical Densities ([6]; Log 10 Concentration −8.9): 0.487 | Percent Growth ([6]; Log 10 Concentration −8.9): 80% | CC50 [6, 11]: > 12.6 µM | TGI [7]: >1.26E−05 | Mean Optical Densities ([7]; Log 10 Concentration −4.9): 0.027 | Percent Growth ([7]; Log 10 Concentration −4.9): 0% | Mean Optical Densities ([7]; Log 10 Concentration −5.9): 1.476 | Percent Growth ([7]; Log 10 Concentration −5.9): 48% | Mean Optical Densities ([7]; Log 10 Concentration −6.9): 2.706 | Percent Growth ([7]; Log 10 Concentration −6.9): 88% | Mean Optical Densities ([7]; Log 10 Concentration −7.9): 2.988 | Percent Growth ([7]; Log 10 Concentration −7.9): 98% | Mean Optical Densities ([7]; Log 10 Concentration −8.9): 3.189 | Percent Growth ([7]; Log 10 Concentration −8.9): 104% | CC50 [7, 11]: > 12.6 µM | TGI [8]: >1.26E−05 | Mean Optical Densities ([8]; Log 10 Concentration −4.9): 0.404 | Percent Growth ([8]; Log 10 Concentration −4.9): 10% | Mean Optical Densities ([8]; Log 10 Concentration −5.9): 3.432 | Percent Growth ([8]; Log 10 Concentration −5.9): 89% | Mean Optical Densities ([8]; Log 10 Concentration −6.9): 4.227 | Percent Growth ([8]; Log 10 Concentration −6.9): 110% | Mean Optical Densities ([8]; Log 10 Concentration −7.9): 3.921 | Percent Growth ([8]; Log 10 Concentration −7.9): 102% | Mean Optical Densities ([8]; Log 10 Concentration −8.9): 3.965 | Percent Growth ([8]; Log 10 Concentration −8.9): 103% | CC50 [8, 11]: > 12.6 µM | TGI [9]: >1.26E−05 | Mean Optical Densities ([9]; Log 10 Concentration −4.9): 1.931 | Percent Growth ([9]; Log 10 Concentration −4.9): 56% | Mean Optical Densities ([9]; Log 10 Concentration −5.9): 3.284 | Percent Growth ([9]; Log 10 Concentration −5.9): 96% | Mean Optical Densities ([9]; Log 10 Concentration −6.9): 3.381 | Percent Growth ([9]; Log 10 Concentration −6.9): 99% | Mean Optical Densities ([9]; Log 10 Concentration −7.9): 3.289 | Percent Growth ([9]; Log 10 Concentration −7.9): 96% | Mean Optical Densities ([9]; Log 10 Concentration −8.9): 3.395 | Percent Growth ([9]; Log 10 Concentration −8.9): 99% | CC50 [9, 11]: > 12.6 µM | TGI [10]: 3.43E−06 | Mean Optical Densities ([10]; Log 10 Concentration −4.9): 0.007 | Percent Growth ([10]; Log 10 Concentration −4.9): −72% | Mean Optical Densities ([10]; Log 10 Concentration −5.9): 1.475 | Percent Growth ([10]; Log 10 Concentration −5.9): 55% | Mean Optical Densities ([10]; Log 10 Concentration −6.9): 2.337 | Percent Growth ([10]; Log 10 Concentration −6.9): 88% | Mean Optical Densities ([10]; Log 10 Concentration −7.9): 2.308 | Percent Growth ([10]; Log 10 Concentration −7.9): 87% | Mean Optical Densities ([10]; Log 10 Concentration −8.9): 2.613 | Percent Growth ([10]; Log 10 Concentration −8.9): 99%
